Here are results for 15 compounds from patent US10646488B2 (Araxes Pharma LLC, priority 2016, dated 2020).

The first assay concerns the target T1, KRAS G12C 1-169, his-tagged protein, GDP-loaded (Homo sapiens, UniProt P01116, G12C).
T1 construct: KRAS G12C 1-169, his-tagged protein, GDP-loaded
In words: Covalent binding (% modification) to KRAS G12C by mass spectrometry. Note: test concentration or dose not given here. Conditions: covalent binding to KRAS G12C after a ten minute incubation period.
In the case of `C=CC(=O)N1C[C@H](C)N(c2nc(N3CC(N(C)C)C3)nc3c(F)c(-c4c(O)cccc4F)c(Cl)cc23)C[C@H]1C` (atropisomer, axis not shown) [Compound 53, 1-((2R,5S)-4-((R)-6-chloro-2-(3-(dimethylamino)azetidin-1-yl)-8-fluoro-7-(2-fluoro-6-hydroxyphenyl)quinazolin-4-yl)-2,5-dimethyl-piperazin-1-yl) prop-2-en-1-one], the Binding % result is “+ (+ indicates binding activity up to 50%)”.
Consider `C=CC(=O)N1C[C@H](C)N(c2nc(N3CC(N(C)C)C3)nc3c(F)c(-c4c(C)ccc5cn[nH]c45)c(Cl)cc23)C[C@H]1C` (atropisomer, axis not shown) [Compound 73, 1-((2R,5S)-4-((S)-6-chloro-2-(3-(dimethylamino)azetidin-1-yl)-8-fluoro-7-(6-methyl-1H-indazol-7-yl)quinazolin-4-yl)-2,5-dimethyl-piperazin-1-yl) prop-2-en-1-one], for which the Binding % result is reported as “+ (+ indicates binding activity up to 50%)”.
Regarding `C=CC(=O)N1CCN(c2nc(NC3CCN(C4CC4)CC3)nc3c(F)c(-c4c(C)ccc5[nH]ncc45)c(Cl)cc23)[C@@H](C)C1` (atropisomer, axis not shown) [Compound 14, 1-((S)-4-(6-chloro-2-((1-cyclopropyl-piperidin-4-yl)amino)-8-fluoro-7-((S)-5-methyl-1H-indazol-4-yl)quinazolin-4-yl)-3-methyl-piperazin-1-yl) prop-2-en-1-one], the Binding % entry is “+ (+ indicates binding activity up to 50%)”.
Consider `C=CC(=O)N1C[C@@H](C)N(c2nc(N)nc3c(F)c(-c4c(O)cccc4F)c(Cl)cc23)[C@@H](C)C1` [Compound 17, 1-((3S,5R)-4-(2-amino-6-chloro-8-fluoro-7-(2-fluoro-6-hydroxyphenyl)quinazolin-4-yl)-3,5-dimethylpiperazin-1-yl)prop-2-en-1-one], for which the Binding % entry is on record as “++ (++ indicates binding activity from 50 to 90%)”.
Take `C=CC(=O)N1CCN(c2nc(N)nc3c(F)c(-c4c(O)cccc4F)c(Cl)cc23)C[C@@H]1C` [Compound 3, 1-((2S)-4-(2-amino-6-chloro-8-fluoro-7-(2-fluoro-6-hydroxyphenyl)quinazolin-4-yl)-2-methylpiperazin-1-yl)prop-2-en-1-one]: the Binding % entry is “++ (++ indicates binding activity from 50 to 90%)”.
The same measure, in the same setting: the result for `C=CC(=O)N1[C@H](C)CN(c2nc(OCCN(CC)CC)nc3c(F)c(-c4c(C)ccc5[nH]ncc45)c(Cl)cc23)C[C@@H]1C` [Compound 46, 1-((2R,6S)-4-(6-Chloro-2-(2-(Diethylamino)Ethoxy)-8-Fluoro-7-(5-Methyl-1H-Indazol-4-Yl)Quinazolin-4-Yl)-2,6-Dimethylpiperazin-1-Yl)Prop-2-En-1-One] reads “++ (++ indicates binding activity from 50 to 90%)”.

Still in this assay, the particulars now being: covalent binding to KRAS G12C after a three minute incubation period.
As for `C=CC(=O)N1C[C@H](C)N(c2nc(OCCCN(C)C)nc3c(F)c(-c4c(C)ccc5[nH]ncc45)c(Cl)cc23)C[C@H]1C` [Compound 199, 1-((2R,5S)-4-(6-chloro-2-(3-(dimethylamino)propoxy)-8-fluoro-7-(5-methyl-1H-indazol-4-yl)quinazolin-4-yl)-2,5-dimethyl-piperazin-1-yl) prop-2-en-1-one], the Binding % result was “++ (++ indicates binding activity from 50 to 90%)”.
Take `C=CC(=O)N1C[C@H](C)N(c2nc(N3CC(N(C)CC)C3)nc3c(F)c(-c4c(O)cccc4F)c(Cl)cc23)C[C@H]1C` (atropisomer, axis not shown) [Compound 154, 1-((2R,5S)-4-(6-chloro-2-(3-(ethyl(methyl)amino)azetidin-1-yl)-8-fluoro-7-((S)-2-fluoro-6-hydroxyphenyl)quinazolin-4-yl)-2,5-dimethyl-piperazin-1-yl) prop-2-en-1-one]: the Binding % result is recorded as “+++ (+++ indicates binding activity greater than 90%)”.
Take `C=CC(=O)N1C[C@H](C)N(c2nc(OC3CCN(C4CC4)CC3)nc3c(F)c(-c4c(C)ccc5cn[nH]c45)c(Cl)cc23)C[C@H]1C` [Compound 137, 1-((2R,5S)-4-(6-chloro-2-((1-cyclopropyl-piperidin-4-yl)oxy)-8-fluoro-7-(6-methyl-1H-indazol-7-yl)quinazolin-4-yl)-2,5-dimethyl-piperazin-1-yl) prop-2-en-1-one]: the Binding % entry is on record as “+++ (+++ indicates binding activity greater than 90%)”.
`C=CC(=O)N1C[C@H](C)N(c2nc(N3CC(N(CC)CC)C3)nc3c(F)c(-c4c(C)ccc5cn[nH]c45)c(Cl)cc23)C[C@H]1C` [Compound 129, 1-((2R,5S)-4-(6-chloro-2-(3-(diethylamino)azetidin-1-yl)-8-fluoro-7-(6-methyl-1H-indazol-7-yl)quinazolin-4-yl)-2,5-dimethyl-piperazin-1-yl) prop-2-en-1-one]: the Binding % entry is “++ (++ indicates binding activity from 50 to 90%)”.
Same read-out and setting: as for `C=CC(=O)N1C[C@H](C)N(c2nc(Oc3cn[nH]c3)nc3c(F)c(-c4c(C)ccc5[nH]ncc45)c(Cl)cc23)C[C@H]1C` [Compound 223, 1-((2R,5S)-4-(2-(1H-pyrazol-4-yloxy)-6-chloro-8-fluoro-7-(5-methyl-1H-indazol-4-yl)quinazolin-4-yl)-2,5-dimethyl-piperazin-1-yl) prop-2-en-1-one], the entry is “++ (++ indicates binding activity from 50 to 90%)”.
The same measure, in the same setting: as for `C=CC(=O)N1C[C@H](C)N(c2nc(COCc3ncccc3F)nc3c(F)c(-c4c(O)cccc4F)c(Cl)cc23)C[C@H]1C` [Compound 141, 1-((2R,5S)-4-(6-chloro-8-fluoro-7-(2-fluoro-6-hydroxyphenyl)-2-(((3-fluoro-pyridin-2-yl)methoxy)methyl)quinazolin-4-yl)-2,5-dimethyl-piperazin-1-yl) prop-2-en-1-one], the entry is “++ (++ indicates binding activity from 50 to 90%)”; as for `C=CC(=O)N1C[C@H](C)N(c2nc(N3CC4(CCN(C)C4)C3)nc3c(F)c(-c4c(O)cccc4F)c(Cl)cc23)C[C@H]1C` [Compound 190, 1-((2R,5S)-4-(6-chloro-8-fluoro-7-(2-fluoro-6-hydroxyphenyl)-2-(6-methyl-2,6-diazaspiro[3.4]octan-2-yl)quinazolin-4-yl)-2,5-dimethyl-piperazin-1-yl) prop-2-en-1-one], “++ (++ indicates binding activity from 50 to 90%)”; as for `C=CC(=O)N1C[C@H](C)N(c2nc(N3CC(N(C)C)C3)nc3c(F)c(-c4ccccc4O)c(Cl)cc23)C[C@H]1C` [Compound 135, 1-((2R,5S)-4-(6-chloro-2-(3-(dimethylamino)azetidin-1-yl)-8-fluoro-7-(2-hydroxyphenyl)quinazolin-4-yl)-2,5-dimethyl-piperazin-1-yl) prop-2-en-1-one], “++ (++ indicates binding activity from 50 to 90%)”.
For the compound `C=CC(=O)N1CCN(c2nc(CNCc3ncccn3)nc3c(F)c(-c4c(O)cccc4F)c(Cl)cc23)C[C@H]1C` [Compound 95, 1-((2R)-4-(6-chloro-8-fluoro-7-(2-fluoro-6-hydroxyphenyl)-2-(((pyrimidin-2-ylmethyl)amino)methyl)quinazolin-4-yl)-2-methyl-piperazin-1-yl) prop-2-en-1-one], the Binding % result is listed as “++ (++ indicates binding activity from 50 to 90%)”.
